{
  "source": "patent US12714680B2",
  "about": "“Composition for anti-aging or skin regeneration comprising Okanin” (POSCO CO., LTD, priority 2020, dated 2026)",
  "assay_type_in_all_cases": "cell-based",
  "key": {"[1]": {"biological_target": "EGFR (Homo sapiens, UniProt P00533)", "sequence (P00533 25-1210, species assumed)": "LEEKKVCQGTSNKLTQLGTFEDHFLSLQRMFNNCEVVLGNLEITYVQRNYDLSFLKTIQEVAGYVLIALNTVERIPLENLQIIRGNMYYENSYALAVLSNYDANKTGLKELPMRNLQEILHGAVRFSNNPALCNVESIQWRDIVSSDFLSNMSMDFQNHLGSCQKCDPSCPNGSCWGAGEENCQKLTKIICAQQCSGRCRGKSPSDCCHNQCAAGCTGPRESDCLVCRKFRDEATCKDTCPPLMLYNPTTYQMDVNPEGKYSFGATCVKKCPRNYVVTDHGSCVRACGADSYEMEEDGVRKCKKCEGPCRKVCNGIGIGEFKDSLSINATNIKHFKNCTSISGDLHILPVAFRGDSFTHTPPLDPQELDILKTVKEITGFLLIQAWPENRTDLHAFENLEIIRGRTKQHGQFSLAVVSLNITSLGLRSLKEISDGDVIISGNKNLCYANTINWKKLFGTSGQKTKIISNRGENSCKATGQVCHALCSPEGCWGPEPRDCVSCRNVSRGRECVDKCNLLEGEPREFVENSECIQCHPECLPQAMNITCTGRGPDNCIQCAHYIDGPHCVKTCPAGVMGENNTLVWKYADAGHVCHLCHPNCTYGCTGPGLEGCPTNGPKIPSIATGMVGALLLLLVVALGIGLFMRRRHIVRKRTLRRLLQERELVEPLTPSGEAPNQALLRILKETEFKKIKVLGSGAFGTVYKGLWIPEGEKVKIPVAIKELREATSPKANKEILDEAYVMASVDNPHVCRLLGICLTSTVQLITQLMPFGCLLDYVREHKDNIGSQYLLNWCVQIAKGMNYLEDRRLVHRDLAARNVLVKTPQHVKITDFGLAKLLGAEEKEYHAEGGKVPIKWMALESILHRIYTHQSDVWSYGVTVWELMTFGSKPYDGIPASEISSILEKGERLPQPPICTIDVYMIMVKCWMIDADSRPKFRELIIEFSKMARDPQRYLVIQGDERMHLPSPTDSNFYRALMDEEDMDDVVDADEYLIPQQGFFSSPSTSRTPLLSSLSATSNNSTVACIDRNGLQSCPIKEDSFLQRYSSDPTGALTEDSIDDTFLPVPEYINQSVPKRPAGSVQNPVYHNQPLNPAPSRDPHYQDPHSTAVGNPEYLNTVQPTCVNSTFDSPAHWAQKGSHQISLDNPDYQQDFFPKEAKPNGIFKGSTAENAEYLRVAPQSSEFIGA", "assay": "EGFR activity measurement biosensor system (EGFP-SH2 fluorescence signals)", "details": "100 μM Okanin; cells cultured in serum-free medium 24 hours; compared to DMSO control; FIG. 1", "method": "In addition, by using the feature that, when the activities of the EGFR continue to be maintained, the EGFR is internalized into the cell, the cell of the biosensor system that may measure the activities of the EGFR was used in the present experimentation (see Korean Laid-open Patent Publication No. 2019-0014340). […] After culturing the cells in a serum-free medium for 24 hours, the cells were treated with Okanin."}, "[2]": {"system": "HaCaT cells", "assay": "Cytotoxicity depending on the concentrations of Okanin (cell viability)", "method": "The cytotoxicity of Okanin was measured using HaCaT cells as keratinocytes. When cells are treated with MTT tetrazolium which is a yellow water-soluble substrate, such a substrate is reduced to MTT formazan by mitochondrial enzymes, and the color changes to blue-purple. That is, since the blue-violet color appears darker as the number of living cells increases, the blue-violet absorbance at a wavelength of 540 nm reflects the concentration of living cells. Specifically, after culturing cells to fill each well of a 96-well plate, the cells were treated with Okanin at concentrations of 0, 10, 25, 50 and 100 μM, and cultured for 24 hours and 48 hours in a 5% CO2 incubator at 37° C. Thereafter, cell viability was measured using MIT reagent. A control group not treated with Okanin (0 μM) was treated with the same amount of the solvent DMSO."}, "[3]": {"system": "ERK", "assay": "Activation (phosphorylation) of ERK by Western blotting in HaCaT cells", "details": "serum-free medium, FIG. 3", "method": "(§1) It is well known that the activities of extracellular signal-regulated kinase (ERK) and protein kinase B (AKT) transmit signals necessary for cell growth and survival by the activities of an EGFR. In addition, in Experimental Example 1, it was observed that Okanin generated signals due to activation of the EGFR in the cells of the biosense system for measuring the activities of the EGFR. Accordingly, it was measured whether the activities of the EGFR were induced by Okanin to the activities of the ERK and AKT. Specifically, HaCaT cells were cultured in a serum-free medium, treated with 10 μM. of Okanin for 10 minutes, 30 minutes and 60 minutes, respectively, and, thereafter, phosphorylated and activated ERK and AKT were analyzed by Western blotting. As antibodies, a phosphorylation antibody as a marker of activated ERK and AKT, and a general antibody for measuring all of them were used, respectively."}, "[4]": {"system": "AKT", "assay": "Activation (phosphorylation) of AKT by Western blotting in HaCaT cells", "details": "serum-free medium, FIG. 3", "method": "as §1"}, "[5]": {"system": "egr1", "assay": "Gene expression change by real-time quantitative PCR in HaCaT cells: egr1", "details": "10 μM Okanin, 1 hour, serum-free, corrected with β-actin, FIG. 4", "from_the_text": "(§2) Signaling by an EGFR induces the expression of genes important for cell growth and survival through important signaling mediator proteins such as ERK and AKT. The egr1, c-myc, c-jun and c-fos genes are regulated by the EGFR and are well known as genes that promote cell growth and survival. […] Specifically, Tri-reagent was used for mRNA extraction, cDNA was created by a reverse transcription polymerase chain reaction (RT-PCR) using a poly-A primer and a reverse transcriptase, and real-time quantitative PCR was used to measure the amount of each mRNA. The amount of each mRNA was corrected with the amount of β-actin, which is a constitutive gene."}, "[6]": {"system": "c-myc", "assay": "Gene expression change by real-time quantitative PCR in HaCaT cells: c-myc", "details": "10 μM Okanin, 1 hour, serum-free, corrected with β-actin, FIG. 4", "from_the_text": "as §2"}, "[7]": {"system": "c-jun", "assay": "Gene expression change by real-time quantitative PCR in HaCaT cells: c-jun", "details": "10 μM Okanin, 1 hour, serum-free, corrected with β-actin, FIG. 4", "from_the_text": "as §2"}, "[8]": {"system": "c-fos", "assay": "Gene expression change by real-time quantitative PCR in HaCaT cells: c-fos", "details": "10 μM Okanin, 1 hour, serum-free, corrected with β-actin, FIG. 4", "from_the_text": "as §2"}, "[9]": {"system": "HaCaT cells", "assay": "Growth and proliferation of keratinocytes (CCK-8 assay)", "details": "24 hours, serum-free, vs negative control (DMSO), p<0.05, FIG. 5", "method": "Cell counting kit-8 (CCK-8) is a water-soluble tetrazolium salt reagent called WST-8 and forms orange-colored water-soluble Formazan by dehydrogenase in the mitochondria of living cells. […] After cultured for 24 hours, the cells were treated with CCK8, and the cell growth was analyzed by measuring absorbance at 450 nm."}, "[10]": {"system": "HaCaT cells", "assay": "Wound healing assay", "details": "1 μM Okanin, culture for 6 days, serum-free; vs negative control; significant difference from the 3rd day (p<0.05); FIGS. 6A, 6B", "method": "The cell growth promoting effect of Okanin was confirmed through Wound healing assay. Specifically, after fully culturing HaCaT cells in a 12-well plate, cells on a certain area were scraped off using a yellow tip to form a wound area, changed to a serum-free medium, and treated with 1 μM of Okanin."}, "[11]": {"system": "HaCaT cells", "assay": "Resistance to cell damage induced by UVB (cell viability, CCK-8)", "details": "1 μM Okanin, UVB 500 mJ/cm2, serum-free, negative control about 40%, p<0.05, FIG. 7", "method": "Among the ultraviolet wavelengths, UVB wavelengths corresponding to 280 to 315 nm penetrate the epidermal layer where many keratinocytes exist to cause cell damage. […] The solvent DMSO was used as a negative control group, and the cell viability was measured using the CCK-8 method used in Experimental Example 5."}},
  "data": [
    {"smiles": "O=C(/C=C/c1ccc(O)c(O)c1)c1ccc(O)c(O)c1O", "note": "[Okanin, 2′,3,3′,4,4′-pentahydroxychalcone]", "values": [
      {"measurement": "EGFR activation (fluorescence signals of biosensor cells)", "setting": "[1]", "value": "activated"},
      {"measurement": "cytotoxicity", "setting": "[2]; 25 μM, cultured 24 hours and 48 hours, FIG. 2", "value": "some cytotoxicity"},
      {"measurement": "cytotoxicity", "setting": "[2]; 50 μm, cultured 24 hours and 48 hours, FIG. 2", "value": "some cytotoxicity"},
      {"measurement": "cytotoxicity", "setting": "[2]; concentration of 10 μM or less", "value": "free of cytotoxicity"},
      {"measurement": "induction of the activities of ERK", "setting": "[3]; 10 μM Okanin for 10 minutes", "value": "sufficiently induced"},
      {"measurement": "time within which ERK was rapidly activated", "setting": "[3]; 10 μM Okanin", "value": "≤ 30", "unit": "min"},
      {"measurement": "induction of the activities of AKT", "setting": "[4]; 10 μM Okanin for 10 minutes", "value": "sufficiently induced"},
      {"measurement": "time within which AKT was rapidly activated", "setting": "[4]; 10 μM Okanin", "value": "≤ 30", "unit": "min"},
      {"measurement": "egr1 mRNA", "setting": "[5]", "value": "increased"},
      {"measurement": "c-myc mRNA", "setting": "[6]", "value": "increased"},
      {"measurement": "c-jun mRNA", "setting": "[7]", "value": "increased"},
      {"measurement": "c-fos mRNA", "setting": "[8]", "value": "increased"},
      {"measurement": "growth and proliferation of cells", "setting": "[9]; 100 nM Okanin", "value": "significantly increased"},
      {"measurement": "growth and proliferation of cells", "setting": "[9]; 1 μM Okanin", "value": "significantly increased"},
      {"measurement": "growth and proliferation of cells", "setting": "[9]; 10 μM Okanin", "value": "significantly increased"},
      {"measurement": "filling of the wound area", "setting": "[10]", "value": "more quickly filled"},
      {"measurement": "cells survived after UVB", "setting": "[11]", "value": "about 60%"}
    ]}
  ]
}
